Data taken from PMC9968691, “Perfluoroalkyl substances (PFASs) are substrates of the renal human organic anion transporter 4 (OAT4)” (Archives of Toxicology, 2022).
Entries after “also recorded” stand apart in the source; their conditions may differ. Marks after values point to notes of the source that are not given here.

Key:
human OAT4 [1] = target: T1, human OAT4 (Homo sapiens, UniProt Q9NSA0); experiment: Screening of cellular PFAS accumulation in OAT4-transfected vs control-transfected HEK293 cells (PFAS mixture); format: cell-based; settings: for Transport by OAT4 (cellular PFAS level in OAT4-transfected vs control-transfected cells; substantial = at least twofold higher): PFAS mixture, each 1 µM, 10 min; for OAT4 substrate: yes/no as identified in vitro in this study
T1 construct: expressed in transfected cells; host or cells: HEK293 cells transduced with recombinant baculovirus (CMV promoter)
T1 sequence (Q9NSA0 1-550): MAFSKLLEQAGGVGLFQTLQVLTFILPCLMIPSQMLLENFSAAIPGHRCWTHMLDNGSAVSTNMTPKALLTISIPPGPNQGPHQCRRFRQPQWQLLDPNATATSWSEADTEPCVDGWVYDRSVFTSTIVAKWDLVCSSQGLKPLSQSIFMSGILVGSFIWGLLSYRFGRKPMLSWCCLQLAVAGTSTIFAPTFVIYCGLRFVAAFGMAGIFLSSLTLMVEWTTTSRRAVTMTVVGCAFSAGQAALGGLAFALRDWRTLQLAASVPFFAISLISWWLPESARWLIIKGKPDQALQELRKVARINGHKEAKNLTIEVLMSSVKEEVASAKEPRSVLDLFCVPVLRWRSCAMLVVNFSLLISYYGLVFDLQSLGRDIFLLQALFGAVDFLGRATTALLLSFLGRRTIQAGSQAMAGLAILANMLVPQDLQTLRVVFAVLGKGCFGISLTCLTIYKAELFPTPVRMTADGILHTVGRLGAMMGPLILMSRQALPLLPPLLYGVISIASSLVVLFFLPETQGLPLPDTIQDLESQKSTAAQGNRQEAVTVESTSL
Source text: (§1) The recombinant baculoviruses that contain the cDNA of human transporters OAT4 and URAT1 downstream of a cytomegalovirus (CMV) promotor were generated as previously described (Smeets et al. [2020]). As a negative control, baculovirus containing the gene for enhanced yellow fluorescence protein (eYFP) was produced similarly. Moreover, transduction of HEK293 cells and uptake assays were essentially performed as previously described (Smeets et al. [2020]). The culture medium was removed and cells were washed with buffer (HBSS plus 10 mM HEPES, pH 7.4). Uptake was initiated by replacing this solution with 150 µL of fresh transport buffer (HBSS (Life Technologies Invitrogen (Carlsbad, CA, USA))-HEPES (Sigma-Aldrich), pH 7.4) supplemented with the PFASs for 10 min. To terminate the reaction, transport buffer was replaced with 400 µL ice-cold HBSS-HEPES buffer containing 0.5% BSA (m/v; Roche Diagnostics GmbH (Mannheim, Germany)), after which the cells were washed twice with ice-cold HBSS-HEPES. Cellular PFAS concentrations were determined based on the method described by Rosenmai et al. ([2018]). Briefly, cells were solubilised in 250 µL lysis buffer and cell lysates were stored in Eppendorf tubes at − 80 °C and defrozen when needed for LC–MS analysis and for quantification of the protein concentration.
(§2) To 50 μL cell lysate, 850 μL methanol (Actu-All Chemicals, Oss, The Netherlands) containing internal standards (^13C4-PFHpA, ^13C4-PFOA, ^13C5-PFNA, ^13C2-PFDA, ^13C3-PFBS, ^18O2-PFHxS and ^13C4-PFOS (Wellington Laboratories, Canada) was added. These dilutions were vortexed well before centrifugation at maximum speed for 10 min at 4 °C. PFAS concentrations in the supernatant were determined using LC–MS/MS analysis. If required, samples were further diluted with methanol and containing internal standards. LC–MS/MS analysis was based on a Shimadzu UHPLC system containing: 2 pumps (LC 20AD xr); column oven (Shimadzu CTO-20AC); pump switch (Shimadzu FCV-11AL); degasser (Shimadzu DGU-20A3); and sample tray holder (Shimadzu SIL-20 AC XR model) (Shimadzu Corporation, Kyoto, Japan). An Acquity BEH-C18 analytical column (50 × 2.1 mm i.d., 1.7 μm, Waters, Milford, MA, USA) was used to separate the PFASs at a column temperature of 35 °C. In addition, a symmetry C18 analytical column (50 × 2.1 mm i.d., 5 µm, Waters, Milford, MA, USA) was used as a guard column, placed between the pump and the injector valve to isolate and delay interferences out of the LC system. The mobile phase consisted of 2 mM ammonium acetate (Merck Millipore, Darmstadt, Germany) in Milli-Q water (prepared using a Milli-Q system with a resistivity of at least 18.2 MΩ cm^−1 (Merck Millipore)) (mobile phase A) and Acetonitrile ULC/MS grade (Actu-All Chemicals, Oss, The Netherlands) (mobile phase B). The injection volume used was 20 μL. The chromatographic gradient was operated at a flow rate of 0.3 mL min^−1 starting from 25% mobile phase B in the first 0.1 min, a linear increase to 100% B in 6 min with a final hold of 2.5 min. The gradient was returned to 25% B within 0.1 min for 3.9 min to equilibrate before the next injection, resulting in a total run of 12.5 min.
(§3) Cellular PFAS content was normalised to cellular protein. To that end, from each cell lysate, 25 µL was used to determine the protein concentration (technical duplicate) using the Pierce BCA Protein Assay Kit (Thermo Scientific, Waltham, MA). First, samples were diluted two times with lysis buffer directly in a 96-wells plate (PS, F-bottom, clear; Greiner Bio-One, Alphen aan de Rijn, The Netherlands), and in each plate, a BSA standard curve (0.05–2 mg mL^−1 in lysis buffer) was included allowing protein quantification of the samples. The manufacturer’s protocol was followed for the subsequent steps and absorbance was measured using a microplate reader (Synergy™ HT BioTek, Winooski, VT) at 562 nm. […]

human URAT1 = target: T2, human URAT1 (Homo sapiens, UniProt Q96S37); experiment: Screening of cellular PFAS accumulation in URAT1-transfected vs control-transfected HEK293 cells (PFAS mixture); format: cell-based; settings: yes/no as identified in vitro in this study
T2 construct: expressed in transfected cells; host or cells: HEK293 cells transduced with recombinant baculovirus (CMV promoter)
T2 sequence (Q96S37 1-553): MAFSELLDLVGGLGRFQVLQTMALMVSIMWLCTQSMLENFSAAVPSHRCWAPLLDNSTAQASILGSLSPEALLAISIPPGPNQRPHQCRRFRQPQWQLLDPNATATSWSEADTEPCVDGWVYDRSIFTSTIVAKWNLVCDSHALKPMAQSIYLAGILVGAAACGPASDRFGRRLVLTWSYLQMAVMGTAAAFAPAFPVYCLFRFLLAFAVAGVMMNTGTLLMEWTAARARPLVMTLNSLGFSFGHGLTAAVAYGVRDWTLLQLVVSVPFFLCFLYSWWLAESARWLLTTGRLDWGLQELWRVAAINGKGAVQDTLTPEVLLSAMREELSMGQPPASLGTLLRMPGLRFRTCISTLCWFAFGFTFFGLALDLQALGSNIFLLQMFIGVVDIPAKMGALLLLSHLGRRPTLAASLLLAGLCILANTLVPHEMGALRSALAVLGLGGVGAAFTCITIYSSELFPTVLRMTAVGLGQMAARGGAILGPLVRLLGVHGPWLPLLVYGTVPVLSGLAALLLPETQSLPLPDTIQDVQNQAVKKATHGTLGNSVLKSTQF
Source text: as §1, §2, §3

OAT4 [2] = system: OAT4; parameters: method as in Yang et al. 2010; settings: OAT4-expressing CHO cells; ref Yang et al. 2010; cited from earlier work
URAT1 [3] = system: URAT1; parameters: method as in Yang et al. 2010; settings: URAT1-expressing HEK293 cells; ref Yang et al. 2010; cited from earlier work
albumin = settings: ref Allendorf et al. (2019); cited from earlier work
[4] = (average) serum half-life; ref Xu et al. (2020) for PFHpA; Olsen et al. (2007), Li et al. (2018), Xu et al. (2020) for PFOA, PFHxS, PFOS; Olsen et al. (2009) for PFBS; cited from earlier work
URAT1 [5] = system: URAT1; parameters: method as in Iwanaga et al. 2005; Morrissey et al. 2012; settings: probe substrate; ref Iwanaga et al. 2005; Morrissey et al. 2012; cited from earlier work
human OAT4 [6] = target: T1, human OAT4; experiment: OAT4-mediated cellular uptake kinetics (Michaelis–Menten) in OAT4-transfected vs control-transfected HEK293 cells; format: cell-based; settings: OAT4-transfected minus control-transfected HEK293 cells, 1 min exposure, 1-300 µM; best-fit value (standard error)
Procedure: OAT4- and control-transfected cells were exposed for 1 min to a range of PFAS concentrations (1, 3, 10, 30, 100 and 300 µM) and cellular amounts were determined.
OAT4-transfected cells and control-transfected cells were exposed for 1 min to a range of PFAS concentrations and cellular amounts were determined. Amounts obtained in control-transfected cells were subtracted from amounts obtained in OAT4-transfected cells to obtain OAT4-mediated cellular uptake rates.

OAT4 [7] = system: OAT4; parameters: method as in Kimura et al. 2002; Morrissey et al. 2012; settings: probe substrate; ref Kimura et al. 2002; Morrissey et al. 2012; cited from earlier work

Compound | Transport by OAT4 (cellular PFAS level in OAT4-transfected vs control-transfected cells; substantial = at least twofold higher) (human OAT4 [1]) | OAT4 substrate (human OAT4 [1]) | URAT1 substrate (human URAT1) | Km (OAT4 [2]) [µM] | Vmax (OAT4 [2]) [nmol min^−1 mg protein^−1] | Km (URAT1 [3]) [µM] | Vmax (URAT1 [3]) [nmol min^−1 mg protein^−1] | Reported albumin/water partition coefficients (albumin) [L/kg] | Reported half-life in humans [4] | URAT1 substrate (URAT1 [5]) | Apparent Vmax (human OAT4 [6]) [nmol min^−1 mg protein^−1] | OAT4 substrate (OAT4 [7])
O=C(O)C(F)(F)C(F)(F)C(F)(F)C(F)(F)C(F)(F)C(F)(F)C(F)(F)F [PFOA, perfluorooctanoic acid] | substantial transport; also recorded: more than twofold increase | Yes | No | 310 | 37 | 64 | 0.32 | 4.2 | 1.8–3.8^c years | – | – | –
O=c1[nH]c(=O)c2[nH]c(=O)[nH]c2[nH]1 [Uric acid, uric acid] | – | – | – | – | – | – | – | – | – | Yes | – | –
O=S(=O)(O)C(F)(F)C(F)(F)C(F)(F)C(F)(F)C(F)(F)C(F)(F)C(F)(F)C(F)(F)F [PFOS, perfluorooctane sulfonate] | substantial transport; also recorded: more than twofold increase | Yes | No | – | – | – | – | 4.7 | 1.8–5.4^c years | – | 2.2 | –
CCCCC[C@H](O)/C=C/[C@H]1[C@H](O)CC(=O)[C@@H]1C/C=C\CCCC(=O)O [Prostaglandin E2, prostaglandin E2] | – | – | – | – | – | – | – | – | – | – | – | Yes
